Source: US20100285145A1, “GPR 119 MODULATORS” (PFIZER INC, priority 2009, published 2010)
Values joined by “and” are separate entries in the source; they are usually repeats but may differ in a detail not shown here. Equal entries are not always repeated.

molecular target: T1, human GPR119 (Homo sapiens, UniProt Q8TDV5); assay: GPR119 radioligand binding assay ([3H]-Compound A or B, membranes of HEK 293FT cells expressing hGPR119); set-up: host or cells: HEK293-CRE beta-lactamase; conditions: calculated from IC50 with Cheng-Prusoff; each line a separate determination
T1 sequence (Q8TDV5 1-335): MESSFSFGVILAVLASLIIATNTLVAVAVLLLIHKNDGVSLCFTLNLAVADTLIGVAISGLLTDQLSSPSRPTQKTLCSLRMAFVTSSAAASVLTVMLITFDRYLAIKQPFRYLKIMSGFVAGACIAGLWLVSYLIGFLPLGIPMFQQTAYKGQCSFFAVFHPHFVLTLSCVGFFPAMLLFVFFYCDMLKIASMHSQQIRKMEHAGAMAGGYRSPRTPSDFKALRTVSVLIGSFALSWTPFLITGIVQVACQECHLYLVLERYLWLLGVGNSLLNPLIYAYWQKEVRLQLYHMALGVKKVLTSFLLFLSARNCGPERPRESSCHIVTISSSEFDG
Protocol: HEK 293FT cells (Invitrogen, Carlsbad, Calif.) were grown in a shake flask in 293Freestyle medium (Invitrogen) supplemented with 50 microg/mL neomycin and 10 mM HEPES (37C, 8% carbon dioxide, shaking). The cells were centrifuged gently (approximately 500×g, 10 minutes) and the pellet resuspended in a mixture of Dulbecco's PBS (minus Mg++/−Ca++) supplemented with 18% fetal bovine serum (Sigma Aldrich) and P1 virus such that the multiplicity of infection (MOI) was 10 and the final cell density was 1.3×10^6/mL (total volume 2.5 liters). The cells were transferred to a 5 liter Wave Bioreactor Wavebag (Wave Technologies, Mass.) and incubated for 4 hours at 27 degrees Celsius (17 rocks/min, 7 degrees platform angle); at the end of the incubation period, an equal volume (2.5 liters) of 293Freestyle medium supplemented with 30 mM sodium butyrate (Sigma Aldrich) was added (final concentration=15 mM), and the cells were grown for 20 hours (37 degrees Celsius, 8% CO2 [0.2 liters/min}, 25 rocks/minute, 7 degrees platform angle). Cells were harvested via centrifugation (3,000×g, 10 minutes), washed once on DPBS (minus Ca++/Mg++), resuspended in 0.25M sucrose, 25 mM HEPES, 0.5 mM EDTA, pH 7.4 and frozen at −80 degrees Celsius.
The frozen cells were thawed on ice and centrifuged at 700×g (1400 rpm) for 10 minutes at 4 degrees Celsius. The cell pellet was resuspended in 20 mL phosphate-buffered saline, and centrifuged at 1400 rpm for 10 minutes. The cell pellet was then resuspended in homogenization buffer (10 mM HEPES (Gibco #15630), pH 7.5, 1 mM EDTA (BioSolutions, #BIO260-15), 1 mM EGTA (Sigma, #E-4378), 0.01 mg/mL benzamidine (Sigma #B 6506), 0.01 mg/mL bacitracin (Sigma #B 0125), 0.005 mg/mL leupeptin (Sigma #L 8511), 0.005 mg/mL aprotinin (Sigma #A 1153)) and incubated on ice for 10 minutes. Cells were then lysed with 15 gentle strokes of a tight-fitting glass Dounce homogenizer. The homogenate was centrifuged at 1000×g (2200 rpm) for 10 minutes at 4 degrees Celsius. The supernatant was transferred into fresh centrifuge tubes on ice. The cell pellet was resuspended in homogenization buffer, and centrifuged again at 1000×g (2200 rpm) for 10 minutes at 4 degrees Celsius after which the supernatant was removed and the pellet resuspended in homogenization buffer. This process was repeated a third time, after which the supernatants were combined, Benzonase (Novagen # 71206) and MgCl2 (Fluka #63020) were added to final concentrations of 1 U/mL and 6 mM, respectively, and incubated on ice for one hour. The solution was then centrifuged at 25,000×g (15000 rpm) for 20 minutes at 4 degrees Celsius, the supernatant was discarded, and the pellet was resuspended in fresh homogenization buffer (minus Benzonase and MgCl2). After repeating the 25,000×g centrifugation step, the final membrane pellet was resuspended in homogenization buffer and frozen at −80 degrees Celsius. The protein concentration was determined using the Pierce BCA protein assay kit (Pierce reagents A #23223 and B #23224).
Test compounds were serially diluted in 100% DMSO (J. T. Baker #922401). 2 microL of each dilution was added to appropriate wells of a 96-well plate (each concentration in triplicate). Unlabeled Compound A (or Compound B), at a final concentration of 10 microM, was used to determine non-specific binding. [^3H]-Compound A (or [^3H]-Compound B) was diluted in binding buffer (50 mM Tris-HCl, pH 7.5, (Sigma #T7443), 10 mM MgCl2 (Fluka 63020), 1 mM EDTA (BioSolutions #BIO260-15), 0.15% bovine serum albumin (Sigma #A7511), 0.01 mg/mL benzamidine (Sigma #B 6506), 0.01 mg/mL bacitracin (Sigma #B 0125), 0.005 mg/mL leupeptin (Sigma #L 8511), 0.005 mg/mL aprotinin (Sigma #A 1153)) to a concentration of 60 nM, and 100 microL added to all wells of 96-well plate (Nalge Nunc # 267245). […]

| Ki | Compound |
| --- | --- |
| 6100 nM and 1350 nM and 2910 nM | CC(C)OC(=O)N1CCC(Oc2cc(N3CCc4ncccc43)ncn2)CC1 [Example 12, Isopropyl 4-{[6-(2,3-dihydro-1H-pyrrolo[3,2-b]pyridin-1-yl)pyrimidin-4-yl]oxy}piperidine-1-carboxylate] |
| 66.6 nM and 79.3 nM and 53 nM and 96.4 nM | Cc1c(O[C@H]2[C@@H]3COC[C@H]2CN(C(=O)OC(C)C)C3)ncnc1N1CCc2ncccc21 [Example 22, Isopropyl (9-anti)-9-{[6-(2,3-dihydro-1H-pyrrolo[3,2-b]pyridin-1-yl)-5-methylpyrimidin-4-yl]oxy}-3-oxa-7-azabicyclo[3.3.1]nonane-7-carboxylate] |
| 39 nM and 34.7 nM | Cc1c(O[C@H]2[C@@H]3COC[C@H]2CN(C(=O)OC2(C)CC2)C3)ncnc1N1CCc2ncccc21 [Example 25, 1-Methylcyclopropyl (9-anti)-9-{[6-(2,3-dihydro-1H-pyrrolo[3,2-b]pyridin-1-yl)-5-methylpyrimidin-4-yl]oxy}-3-oxa-7-azabicyclo[3.3.1]nonane-7-carboxylate] |
| 1.48 nM and 2.12 nM | Cc1c(O[C@H]2CCN(C(=O)OC(C)(C)C)C[C@H]2F)ncnc1N1CCc2ncccc21 (racemic) [Example 16, tert-Butyl (3R,4S)-4-{[6-(2,3-dihydro-1H-pyrrolo[3,2-b]pyridin-1-yl)-5-methylpyrimidin-4-yl]oxy}-3-fluoropiperidine-1-carboxylate (racemic)] |
| 73.8 nM | Cc1c(O[C@@H]2[C@@H]3COC[C@H]2CN(C(=O)OC(C)C)C3)ncnc1N1CCc2ncccc21 [Example 29, Isopropyl (9-syn)-9-{[6-(2,3-dihydro-1H-pyrrolo[3,2-b]pyridin-1-yl)-5-methylpyrimidin-4-yl]oxy}-3-oxa-7-azabicyclo[3.3.1]nonane-7-carboxylate] |
| 2 nM and 5.04 nM and 2.43 nM and 4.23 nM and 1.7 nM and 5.67 nM and 13.8 nM and 11.9 nM and 2.45 nM and 6.9 nM | Cc1c(O[C@H]2CCN(C(=O)OC3(C)CC3)C[C@H]2F)ncnc1N1CCc2ncccc21 [Example 17, 1-Methylcyclopropyl (3R,4S)-4-{[6-(2,3-dihydro-1H-pyrrolo[3,2-b]pyridin-1-yl)-5-methylpyrimidin-4-yl]oxy}-3-fluoropiperidine-1-carboxylate] |
| 219 nM and 35.5 nM | CC(C)OC(=O)N1C[C@H]2COC[C@@H](C1)[C@H]2Oc1cc(N2CCc3cc(S(C)(=O)=O)ccc32)ncn1 [Example 1, Isopropyl 9-anti-({6-[5-(methylsulfonyl)-2,3-dihydro-1H-indol-1-yl]pyrimidin-4-yl}oxy)-3-oxa-7-azabicyclo[3.3.1]nonane-7-carboxylate] |
| 40.5 nM and 22.2 nM | CCC1(OC(=O)N2C[C@H]3COC[C@@H](C2)[C@H]3Oc2ncnc(N3CCc4ncccc43)c2C)CC1 [Example 26, 1-Ethylcyclopropyl (9-anti)-9-{[6-(2,3-dihydro-1H-pyrrolo-[3,2-b]pyridin-1-yl)-5-methylpyrimidin-4-yl]oxy}-3-oxa-7-azabicyclo[3.3.1]nonane-7-carboxylate] |
| 273 nM and 338 nM | Cc1c(OC2CCN(C(=O)OC(C)C)CC2)ncnc1N1CCc2cc(S(C)(=O)=O)ccc21 [Example 8, Isopropyl 4-({5-methyl-6-[5-(methylsulfonyl)-2,3-dihydro-1H-indol-1-yl]pyrimidin-4-yl}oxy)piperidine-1-carboxylate] |

Second part, the compound before the results:

| Compound | Ki |
| --- | --- |
| CC(C)OC(=O)N1CCC(Oc2cc(N3CCc4cc(C#N)ccc43)ncn2)CC1 [Example 10, Isopropyl 4-{[6-(5-cyano-2,3-dihydro-1H-indol-1-yl)pyrimidin-4-yl]oxy}piperidine-1-carboxylate] | 232 nM |
| Cc1c(OC2CCN(C(=O)OC(C)C)CC2)ncnc1N1CCc2ncccc21 [Example 13, Isopropyl 4-{[6-(2,3-dihydro-1H-pyrrolo[3,2-b]pyridin-1-yl)-5-methylpyrimidin-4-yl]oxy}-piperidine-1-carboxylate] | 55.3 nM and 16 nM and 91.1 nM and 23.8 nM |
| CC(C)OC(=O)N1CCC(Oc2cc(N3CCc4cc(C(=O)N(C)C)ccc43)ncn2)CC1 [Example 9, 4-[6-(5-Dimethylcarbamoyl-2,3-dihydroindol-1-yl)-pyrimidin-4-yloxy]-piperidine-1-carboxylic acid isopropyl ester] | 58.8 nM and 45.2 nM |
| Cc1c(O[C@H]2[C@@H]3COC[C@H]2CN(C(=O)OC2(C)CCC2)C3)ncnc1N1CCc2ncccc21 [Example 27, 1-Methylcyclobutyl (9-anti)-9-{[6-(2,3-dihydro-1H-pyrrolo[3,2-b]pyridin-1-yl)-5-methylpyrimidin-4-yl]oxy}-3-oxa-7-azabicyclo[3.3.1]nonane-7-carboxylate] | 20.8 nM and 13.8 nM |
| CC(C)OC(=O)N1CCC(Oc2cc(N3CCc4cc(S(=O)(=O)CCO)ccc43)ncn2)CC1 [Example 11, Isopropyl 4-[(6-{5-[(2-hydroxyethyl)sulfonyl]-2,3-dihydro-1H-indol-1-yl}pyrimidin-4-yl)oxy]piperidine-1-carboxylate] | 72.8 nM |
| CC(C)(C)OC(=O)N1CCC(Oc2cc(N3CCc4cc(S(C)(=O)=O)ccc43)ncn2)C(F)C1 (racemic) [Example 15, tert-Butyl 3-fluoro-4-({6-[5-(methylsulfonyl)-2,3-dihydro-1H-indol-1-yl]pyrimidin-4-yl}oxy)piperidine-1-carboxylate] | 1.72 nM and 6.77 nM and 1.6 nM |
| CC(C)OC(=O)N1CCC(Oc2ncnc(N3CCc4cc(S(C)(=O)=O)ccc43)c2C#N)CC1 [Example 6, Isopropyl 4-({5-cyano-6-[5-(methylsulfonyl)-2,3-dihydro-1H-indol-1-yl]pyrimidin-4-yl}oxy)piperidine-1-carboxylate] | 1.87 nM and 5.02 nM |
